The results in this text go back to ChEMBL document CHEMBL4130457, “Discovery of AZD-2098 and AZD-1678, Two Potent and Bioavailable CCR4 Receptor Antagonists” (ACS Med Chem Lett, 2017).

pIC50: −log10 of the molar value. Some results are limits rather than exact numbers.

The target in series [1] is T1, C-C chemokine receptor type 4 (Homo sapiens, UniProt P51679).
T1 sequence (P51679 whole entry): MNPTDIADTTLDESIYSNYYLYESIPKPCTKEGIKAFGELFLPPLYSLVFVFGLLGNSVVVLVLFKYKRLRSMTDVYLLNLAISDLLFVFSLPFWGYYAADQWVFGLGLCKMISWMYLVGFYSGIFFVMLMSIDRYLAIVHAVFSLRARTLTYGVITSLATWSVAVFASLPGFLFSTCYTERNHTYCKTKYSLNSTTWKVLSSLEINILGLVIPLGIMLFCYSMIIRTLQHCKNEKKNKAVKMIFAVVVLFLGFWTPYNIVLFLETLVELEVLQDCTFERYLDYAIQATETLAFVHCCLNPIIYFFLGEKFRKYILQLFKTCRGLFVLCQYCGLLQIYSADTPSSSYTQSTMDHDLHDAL
Kind of series: Antagonist activity at recombinant human CCR4 expressed in CHO-K1 cells assessed as inhibition of CCL22 induced Ca2+ mobilization after 2 hrs by FMAT based fluorescence assay. Format: functional, cell-based. In general terms: Calcium assays in cells follow changes in intracellular calcium, usually with a dye or a luminescent sensor.

Series [2] is described as follows: Protein binding in human plasma. Format: ADME, cell-free. The note with it: read-out: PPB (converted).
A short description of series [3]: Lipophilicity, log P of the compound. Format: physicochemical. The note with it: octanol/water.
In series [4] the target is T2, C-C chemokine receptor type 4 (Homo sapiens) (UniProt P51679).
T2 sequence (whole entry): T1 sequence (P51679 whole entry)
Kind of series: Antagonist activity at recombinant human CCR4 expressed in CHO-K1 cells assessed as inhibition of CCL22 induced Ca2+ mobilization at 10 uM after 2 hrs by FMAT based fluorescence assay relative to control. Format: functional, cell-based.

What is called pIC50 is −log10 of the IC50, conventionally taken in molar units. By logP is commonly meant a log measure of how a compound divides between an organic and an aqueous phase. By inhibition is commonly meant the share of the control response that was lost under treatment.

`COc1nc(F)c(F)nc1NS(=O)(=O)c1cccc(Cl)c1Cl`: the negative-log IC50 (pIC50) in series [1] was 9.00. Further, the fraction unbound in series [2] is under 0.002.

On to `COc1nc(Cl)cnc1NS(=O)(=O)c1ccnc(Cl)c1Cl`, for which the pIC50 in series [1] was 5.00.

In the case of `COc1nc(Br)cnc1NS(=O)(=O)c1ccc(Cl)cc1Cl`, in series [1], the pIC50 is 6.90.

For the molecule `COc1nc(Br)cnc1NS(=O)(=O)c1cccc(Cl)c1`, the pIC50 in series [1] was 7.00.

Turning to `COc1ncc(Cl)nc1NS(=O)(=O)c1cccc(Cl)c1Cl`, in series [1], the pIC50 is 8.10. In series [3], this molecule showed a logP of 4.5. For the same molecule, in series [2], the fraction unbound was under 0.001.

Turning to `COc1nc(Br)cnc1NS(=O)(=O)c1sccc1-c1ccccc1`, in series [1], the negative logarithm of the IC50 (pIC50) was 6.00.

`COc1nc(C)cnc1NS(=O)(=O)c1cccc(Cl)c1Cl`: in series [1], the negative logarithm of the IC50 (pIC50) is 7.40. For the same molecule, in series [3], the log partition coefficient (logP) came to 3. For the same molecule, in series [2], the fraction unbound was 0.0035.

On to `COc1nc(Br)cnc1NS(=O)(=O)c1ccsc1`, for which, in series [1], the pIC50 was 5.90.

In the case of `COc1nc(Br)cnc1NS(=O)(=O)c1c(Cl)cccc1Cl`, the pIC50 in series [1] was 6.20.

In the case of `COc1nc(CO)c(C)nc1NS(=O)(=O)c1cccc(Cl)c1Cl`, in series [1], the pIC50 was 7.40. The lipophilicity (logP) in series [3] worked out at 2.4. In addition, the fraction unbound in series [2] was 0.013.

Turning to `COc1ncc(F)nc1NS(=O)(=O)c1cccc(Cl)c1Cl`, the pIC50 in series [1] is 8.40. This molecule also gave a lipophilicity (logP) in series [3] of 3.3. In addition, the fraction unbound in series [2] was under 0.002.

Consider `CCOc1cnc(NS(=O)(=O)c2cccc(Cl)c2Cl)c(OC)n1`, for which, in series [1], the pIC50 was 7.90. The molecule further gave a log partition coefficient (logP) in series [3] of 4.1. Further, the fraction unbound in series [2] is under 0.001.

For the molecule `COc1nc(Br)cnc1NS(=O)(=O)c1ccccc1`, the pIC50 in series [1] is 6.10.

Regarding `CC(C)(C)COc1nc(Cl)cnc1NS(=O)(=O)c1cccc(Cl)c1Cl`, the pIC50 in series [1] was 5.10.

With `O=S(=O)(Nc1ncc(Cl)nc1OCc1cccc(Br)c1)c1cccc(Cl)c1Cl`, the pIC50 in series [1] is 8.40. Besides, the fraction unbound in series [2] was under 0.001.

For `O=S(=O)(Nc1ncc(Cl)nc1OCc1cccnc1)c1cccc(Cl)c1Cl`, the pIC50 in series [1] is 9.20. Besides, the fraction unbound in series [2] is under 0.001.

As to `COc1nc(CO)c(Cl)nc1NS(=O)(=O)c1cccc(Cl)c1Cl`, in series [1], the pIC50 was 8.40. In series [3], this molecule displayed a logP of 3.2. Besides, in series [2], the fraction unbound is 0.004.

As to `CCCCS(=O)(=O)Nc1ncc(Cl)nc1OC`, the negative logarithm of the IC50 (pIC50) in series [1] is 5.50.

For the molecule `CNc1nc(Br)cnc1NS(=O)(=O)c1ccc(Cl)s1`, the pIC50 in series [1] was under 5.00. Further, in series [4], the inhibition is 44%.

For the molecule `COc1nccnc1NS(=O)(=O)c1scc(Cl)c1Cl`, in series [1], the pIC50 is 7.70. This molecule displayed a logP in series [3] of 2.8. In addition, the fraction unbound in series [2] is 0.025.

`O=S(=O)(Nc1ncc(Cl)nc1OCc1ccccc1CO)c1cccc(Cl)c1Cl`: the fraction unbound in series [2] was under 0.001.

As for `COc1nc(Br)cnc1NS(=O)(=O)c1cccc(Cl)c1Cl`, the pIC50 in series [1] is 8.00. Also, the fraction unbound in series [2] is under 0.001.

For the molecule `COc1nc(Br)cnc1NS(=O)(=O)c1cc(Cl)cc(Cl)c1`, in series [1], the pIC50 is 5.30.

As for `COc1nc(Cl)cnc1NS(=O)(=O)c1cccc(Cl)c1C#N`, the pIC50 in series [1] was 7.20.

Turning to `CCOc1nc(Br)cnc1NS(=O)(=O)c1ccc(Cl)s1`, the pIC50 in series [1] is 6.70.

For `COc1ncc(C)nc1NS(=O)(=O)c1cccc(Cl)c1Cl`, the pIC50 in series [1] is 7.30. Further, the fraction unbound in series [2] is under 0.002.

Consider `COc1nc(Cl)cnc1NS(=O)(=O)c1cccc(Cl)c1C`, for which the negative-log IC50 (pIC50) in series [1] is 7.70.

Take `COc1nc(Br)cnc1NS(=O)(=O)c1cccs1`: the pIC50 in series [1] is 6.20.

`O=S(=O)(Nc1ncc(Cl)nc1OCc1cncnc1)c1cccc(Cl)c1Cl`: the pIC50 in series [1] is 7.90. In addition, the fraction unbound in series [2] was under 0.001.

As for `COc1nc(Br)cnc1NS(=O)(=O)c1ccc(Cl)cc1`, the pIC50 in series [1] was 6.90.

On to `COc1nc(Br)cnc1NS(=O)(=O)c1cc(Cl)ccc1Cl`, for which, in series [1], the pIC50 is 5.50.

Turning to `COc1nc(Br)cnc1NS(=O)(=O)c1cc(Cl)c(Cl)s1`, the pIC50 in series [1] was 6.00.

Take `COc1nc(Br)cnc1NS(=O)(=O)c1sc(Cl)cc1Br`: the pIC50 in series [1] is 7.40.

For the molecule `CCc1nc(Br)cnc1NS(=O)(=O)c1ccc(Cl)s1`, in series [1], the pIC50 is 5.30.

For the molecule `CSc1nc(Br)cnc1NS(=O)(=O)c1ccc(Cl)s1`, the pIC50 in series [1] was 5.50.

Turning to `COc1nc(Cl)cnc1NS(=O)(=O)c1scc(Cl)c1Cl`, in series [1], the pIC50 is 8.10.

On to `C=CCOc1nc(Cl)cnc1NS(=O)(=O)c1cccc(Cl)c1Cl`, for which the pIC50 in series [1] is 7.80.

Consider `COc1nc(CO)cnc1NS(=O)(=O)c1cccc(Cl)c1Cl`, for which the negative-log IC50 (pIC50) in series [1] was 7.60. In series [3], this molecule yielded a logP of 2.1. Further, the fraction unbound in series [2] is 0.038.

Take `COc1nc(Cl)cnc1NS(=O)(=O)c1cccc(F)c1Cl`: the pIC50 in series [1] is 7.80.

With `COc1nc(S(C)(=O)=O)cnc1NS(=O)(=O)c1cccc(Cl)c1Cl`, in series [1], the negative-log IC50 (pIC50) is 5.30.

As for `COc1nc(Br)cnc1NS(=O)(=O)c1ccccc1Cl`, the pIC50 in series [1] was 6.80.

Regarding `COc1nc(Cl)cnc1NS(=O)(=O)c1cccc(C(F)(F)F)c1Cl`, the pIC50 in series [1] was 7.20.

`COc1nc(Br)cnc1NS(=O)(=O)c1ccc(Cl)c(Cl)c1`: the pIC50 in series [1] was 6.70.

Consider `C#CCOc1nc(Cl)cnc1NS(=O)(=O)c1cccc(Cl)c1Cl`, for which the negative logarithm of the IC50 (pIC50) in series [1] was 8.60.

With `COc1nc(Cl)cnc1NS(=O)(=O)c1cccc(Cl)c1F`, the pIC50 in series [1] was 7.10.

Turning to `COc1nc(Cl)cnc1NS(=O)(=O)c1cccc(Cl)c1Cl`, the logP in series [3] was 4.1. Also, in series [2], the fraction unbound was under 0.001.
